Test results from patent US20120329738A1, “Water Soluble Drug-Solubilizer Powders and Their Uses” (priority 2009, published 2012).
≈ marks a conversion by molar mass, not a printed value. Where “and” joins values, the source holds several entries; their conditions need not be identical. Identical values can stand only once. Like-named read-outs stand apart in the source and are kept apart here.

What was measured:
[1] = for Curcumin content of reconstituted solution: 100 mg in 10 mL water
Method: The water solutions containing the complexes of the water-insoluble compound and the solubilizer were dried to remove the water and to form a powder. […] Any method of water removal could be used, including freeze-drying, spray-drying, or oven drying. […] The amount of added water can be adjusted to achieve the desired concentration of the compound.
The 30% and 40% curcumin-rubusoside water solution (10 mL) were freeze-dried to powder. […] Part of this powder (100 mg) was re-constituted in 10 mL water. […] (FIG. 13) Similarly, the 30% curcumin-rebusoside solution was freeze-dried to powder, and 100 mg powder reconstituted with 10 mL water.
The powder was reconstituted using 1 ml, 0.5 ml, 0.25 ml or 0.1 ml water, followed by 60 min sonication and a brief vortex. […] Paclitaxel concentrations were determined using a standard paclitaxel calibration curve with paclitaxel standard in methanol. […] (FIG. 15).

physchem = details: 25 °C, aqueous with cosolvent or surfactant or cyclodextrin, thermodynamic from solid
in vitro = details: human, Caco-2
Description: Human epithelial colorectal adenocarcinoma cell line (Caco-2) was obtained from the American Type Culture Collection (ATCC), and cultured according to directions. Caco-2 cells grown in tissue culture flasks were trypsinized, suspended in medium, and the suspensions were applied to wells of a collagen-coated BioCoat Cell Environment in 24-well format (BD Biosciences) at 24,500 cells per well. The cells were allowed to grow and differentiate for three weeks, feeding at 2-day intervals. […] For Apical to Basolateral (A->B) permeability, the test agent (1 mg/mL)+probe substrate were added to the apical (A) side, test agent was added to the Basolateral (B) side, and amount of permeation was determined on the B side. For Basolateral to Apical (B>A) permeability, the test agent+probe substrate were added to the B side, test agent was added to the A side, and the amount of permeation of probe substrate was determined on the A side. Buffer alone, without test agent, was used as a negative control. […] Dosing solutions were prepared by dissolving the test agent in Transport buffer, then adding Lucifer yellow to a portion as indicated. CaCo-2 cells were incubated with these buffers for 2 h., and the receiver side buffer is removed for analysis by LC/MS/MS.
To verify the CaCo-2 cell monolayers were properly formed, aliquots of the cell buffers were analyzed by fluorescence to determine the transport of the impermeable dye Lucifer Yellow.
Where dQ/dt is the rate of permeation, C0 is the initial concentration of test agent, and A is the area of the monolayer.
From bidirectional permeability studies, the efflux ration (RE) is also calculated:
The P-gp inhibition data were calculated from the permeability results for the probe substrate as indicated. Ranitidine (low permeability) and warfarin (high permeability) are included as controls to ensure the proper performance of the test system.

[2] = room temperature; The Merck Index, 1996; cited from earlier work
[3] = Concentration of curcumin dissolved in rebaudioside A water solution, HPLC; type: physicochemical; details: 5% w/v rebaudioside A
Description: A new method (the “Sonication—autoclave method”) was used to solublize most of the compounds, a method different from that reported in International Patent Application No. PCT/US2009/040324 (the “Standard Shake Flask method”). The main difference was the use of higher temperatures and elevated atmospheric pressures. The steps of the new enhanced process are as follows. A water-insoluble compound was weighed into multiple flasks, divided into two groups—a control group and an experimental group. Each experimental flask received a known amount of the solubilizing agent, e.g. rubusoside, being tested. The control flasks contained only the water-insoluble compound. The same volume, 10 mL, unless otherwise indicated, of deionized and distilled water was added to each flask. Alternatively, water solutions containing a known percentage of solubilizer (e.g., 5% or 10% w/v) were prepared. The solubilizer-water solutions were added directly to the experimental flasks containing the water-insoluble compound. In either case, the flasks were then vortexed briefly and sonicated for 60 min at 50° C. Sonication is a process of applying sound (usually ultrasound) energy to agitate particles in a sample. Using this energy, inter-molecular interactions are facilitated. After sonication, the solution was then subjected to heat and pressure. […] The supernatant solution was passed through a 0.45 μm filter and analyzed for the concentration of the water-insoluble compound or solubilizer by HPLC or LC/MS, as described below.
To test if the enhanced process also applies to another solubilizing agent, rebuadioside A was used. […] The water solutions were filtered by 0.45 μM filters and analyzed on HPLC. Quantification was done by comparing to a standard solution of a known amount of curcumin in methanol. […] Curcumin concentration was determined using a standard curcumin solution of 196.8 μg/mL. […]

[4] = tested on: human pancreatic cancer cells (PANC-1); details: literature value; read-out: IC50 for Panc-1 reported by Holcomb et al.; cited from earlier work
[5] = tested on: human pancreatic cancer cells (PANC-1); experiment: Growth inhibition of PANC-1 cells by re-constituted curcumin water solution; type: cell-based
Method: The pH-adjusted water solution was then co-cultured with human pancreatic cancer cells (PANC-1) for 72 hours in a standard cell culture medium. […] All culture materials were purchased from Invitrogen Corporation (Carlsbad, Calif.). […] (FIG. 14).

[6] = Stability of curcumin-rubusoside water solutions (dilution with water, storage, pH); type: physicochemical
Method: This is important because the concentrated curcumin solution may be diluted in a biological system, e.g., in the stomach fluid.
Various concentrations of the solubilizer rubusoside were prepared in water: 0%, 1%, 2.5%, 5%, 10%, 20%, 30%, and 40% w/v. Curcumin (100 mg) was weighed and added into separate flasks, and an equal amount (10 ml) of a rubusoside solution was added to each flask. The prepared water solutions were vortexed briefly and then sonicated for 60 min at temperature of 50° C. These water solutions were subjected to a heat and pressure treatment composed of 121° C. and 1.1 to 1.2 atm for 60 min, and then placed in an incubator set at 25° C. for at least 24 hr. The solutions were then centrifuged at 4000 rpm for 10 min. The supernatant solution was passed through a 0.45 μm filter and analyzed for the concentration of either the water-insoluble compound or rubusoside by HPLC or LC/MS, as described above in Example 2. Quantification was done by comparing to a standard solution of a known amount in methanol. In the presence of 0%, 1%, 2.5%, 5%, 10%, 20%, 30%, and 40% w/v of rubusoside, the water solutions contained 0, 28, 267, 762, 1330, 2914, 4449, and 6004 μg/mL curcumin, respectively. […] When adjusted to about pH 7.0 by the addition of 1× phosphate buffered saline (PBS) powder, the solutions remained stable for at least 48 hours. Thus the reconstituted solution with saline would be sufficiently stable at pH 7.0 for use in a clinic setting.

P-gp = target: T1, P-gp (Homo sapiens, UniProt P08183); experiment: P-gp inhibition in Caco-2 assay with digoxin probe substrate; type: in vitro ADME; details: Caco-2 cell monolayers, probe digoxin 5 µM, test conc 1 mg/mL (1.558 mM), 5 μM digoxin
T1 construct: endogenous in cells; host or cells: Caco-2 (ATCC), differentiated for three weeks on collagen-coated inserts
T1 sequence (P08183 whole entry): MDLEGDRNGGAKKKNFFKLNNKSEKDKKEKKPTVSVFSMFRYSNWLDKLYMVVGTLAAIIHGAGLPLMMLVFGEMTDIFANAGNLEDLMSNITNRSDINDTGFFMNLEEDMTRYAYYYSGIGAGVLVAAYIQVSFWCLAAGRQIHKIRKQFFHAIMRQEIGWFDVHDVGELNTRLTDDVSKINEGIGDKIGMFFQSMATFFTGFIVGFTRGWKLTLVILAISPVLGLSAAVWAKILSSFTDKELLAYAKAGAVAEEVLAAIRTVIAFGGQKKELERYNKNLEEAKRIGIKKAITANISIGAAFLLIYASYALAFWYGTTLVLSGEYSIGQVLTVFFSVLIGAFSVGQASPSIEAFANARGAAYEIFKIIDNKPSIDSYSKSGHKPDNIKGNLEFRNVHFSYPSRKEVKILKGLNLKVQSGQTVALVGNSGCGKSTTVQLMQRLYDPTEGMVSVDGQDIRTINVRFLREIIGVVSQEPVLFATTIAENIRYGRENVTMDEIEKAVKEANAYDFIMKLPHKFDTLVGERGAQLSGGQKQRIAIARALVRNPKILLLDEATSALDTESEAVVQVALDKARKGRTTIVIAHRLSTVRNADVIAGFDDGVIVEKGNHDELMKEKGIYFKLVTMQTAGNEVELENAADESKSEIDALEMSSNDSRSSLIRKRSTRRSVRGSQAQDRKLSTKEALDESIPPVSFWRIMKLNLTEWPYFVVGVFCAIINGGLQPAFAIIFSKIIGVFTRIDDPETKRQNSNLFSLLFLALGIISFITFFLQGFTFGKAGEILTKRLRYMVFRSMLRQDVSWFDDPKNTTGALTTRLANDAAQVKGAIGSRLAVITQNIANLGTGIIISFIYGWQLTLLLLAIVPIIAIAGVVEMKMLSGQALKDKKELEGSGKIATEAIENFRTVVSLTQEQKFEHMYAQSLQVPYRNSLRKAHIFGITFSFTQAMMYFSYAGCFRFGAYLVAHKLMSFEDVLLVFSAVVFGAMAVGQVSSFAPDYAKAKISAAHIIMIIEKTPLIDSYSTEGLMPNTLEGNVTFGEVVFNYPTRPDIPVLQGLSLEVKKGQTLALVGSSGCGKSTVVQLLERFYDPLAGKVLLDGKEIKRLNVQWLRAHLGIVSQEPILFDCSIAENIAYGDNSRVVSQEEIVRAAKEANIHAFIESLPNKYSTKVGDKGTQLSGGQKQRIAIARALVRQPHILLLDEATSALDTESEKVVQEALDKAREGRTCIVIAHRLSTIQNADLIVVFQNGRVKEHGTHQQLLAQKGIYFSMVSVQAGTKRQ
Method: Test agent powders were stored at −20° C. […] After separation on a C18 reverse phase HPLC column (Agilent, Waters, or equivalent) using an acetonitrile-water gradient system, peaks were analyzed by mass spectrometry (MS) using ESI ionization in MRM mode.
Human epithelial colorectal adenocarcinoma cell line (Caco-2) was obtained from the American Type Culture Collection (ATCC), and cultured according to directions. Caco-2 cells grown in tissue culture flasks were trypsinized, suspended in medium, and the suspensions were applied to wells of a collagen-coated BioCoat Cell Environment in 24-well format (BD Biosciences) at 24,500 cells per well. […] For Apical to Basolateral (A->B) permeability, the test agent (1 mg/mL)+probe substrate were added to the apical (A) side, test agent was added to the Basolateral (B) side, and amount of permeation was determined on the B side. For Basolateral to Apical (B>A) permeability, the test agent+probe substrate were added to the B side, test agent was added to the A side, and the amount of permeation of probe substrate was determined on the A side. […]
To verify the CaCo-2 cell monolayers were properly formed, aliquots of the cell buffers were analyzed by fluorescence to determine the transport of the impermeable dye Lucifer Yellow. […]
From bidirectional permeability studies, the efflux ration (RE) is also calculated: […]

[7] = Solubility in water without solubilizer; type: physicochemical

For `Oc1ccc(C=Cc2cc(O)cc(O)c2)cc1` [resveratrol], which “Reconstitution of dried powder” value [1] is on record?
Its value is “successfully reconstituted”.

Which results are given for `C=C1CC[C@H](O)C/C1=C/C=C1\CCC[C@]2(C)[C@@H]([C@H](C)CCCC(C)C)CC[C@@H]12` [vitamin D3, cholecalciferol]?
Concentration in re-composed single water solution (mixed vitamins A, D, E, K in 10% rubusoside): 4.7 µg/mL; solubility (physchem): 4.5 mg/mL (≈ 11.7 mM)

With `CC(=O)[C@H]1CC[C@H]2[C@@H]3CCC4=CC(=O)CC[C@]4(C)[C@H]3CC[C@]12C` [progesterone] as the compound, how does the “Reconstitution of dried powder” value [1] read?
Its value is “successfully reconstituted”.

Which results are given for `C[C@H]1O[C@@H](O[C@H]2[C@@H](O)C[C@H](O[C@H]3[C@@H](O)C[C@H](O[C@H]4CC[C@@]5(C)[C@H](CC[C@@H]6[C@@H]5C[C@@H](O)[C@]5(C)[C@@H](C7=CC(=O)OC7)CC[C@]65O)C4)O[C@@H]3C)O[C@@H]2C)C[C@H](O)[C@@H]1O` [Digoxin, digoxin]?
Papp A→B at 2 h, 5 μM (in vitro): 1.4 ×10⁻⁶ cm/s; Papp B→A at 2 h, 5 μM (in vitro): 18.7 ×10⁻⁶ cm/s; efflux ratio at 2 h, 5 μM (in vitro): 13.7

For `CC[C@@]1(O)C(=O)OCc2c1cc1n(c2=O)Cc2cc3ccccc3nc2-1` [camptothecin], which “Fold increase, enhanced vs standard process” value (10% w/v rubusoside) is on record?
The value was “more than 3 fold”.

What about the “Concentration in water solution” value (10% w/v rubusoside, enhanced process (Sonication-Autoclave)) of the same compound?
The value was 247 µg/mL.

What about the “Concentration in water solution” value (10% w/v rubusoside, standard process (Shake-flask)) of the same compound?
Its value is 80 µg/mL.

With `O=C(O)c1cc(O)c(O)c(O)c1` [Gallic acid] as the compound, how does the Solubility in water [2] read?
The Solubility in water was “about 11 mg/ml”.

For `COc1cc(/C=C/C(=O)CC(=O)/C=C/c2ccc(O)c(OC)c2)ccc1O` [curcumin], which “Fold increase, enhanced vs standard process” value [3] is on record?
The value was about 2 fold.

What about the “Curcumin in water solution” value ([3]; enhanced process) of the same compound?
Its value is 302 µg/mL.

What about the “Curcumin in water solution” value ([3]; standard process) of the same compound?
Its value is 156 µg/mL.

And the IC50 [4]?
Its IC50 is 17 µM.

What about the Curcumin concentration (24 h) of the same compound?
Its Curcumin concentration is 0.34 mg/mL.

What about the Growth inhibition ([5]; 6.25 μg/mL curcumin, 72 hours) of the same compound?
The Growth inhibition was “strong inhibition”.

And the “Curcumin concentration giving maximum growth inhibition” value ([5]; 72 hours)?
The value was at least 12.5 µg/mL.

What about the IC50 ([5]; Homo sapiens, PANC-1, re-constituted curcumin-rubusoside solution, pH 7.2, 72 hours) of the same compound?
Its IC50 is ~5.5 µg/mL and ~14.9 µM.

And the Growth inhibition ([5]; curcumin below 3.13 μg/mL, 72 hours)?
Its Growth inhibition is “no inhibitory effect”.

What about the “Curcumin in water solution” value ([6]; Stock, 40.0% w/v rubusoside) of the same compound?
Its value is 6004 µg/mL.

And the “Curcumin in water solution” value ([6]; stock diluted 1:1 with water, 20.0% rubusoside)?
Its value is 2985 µg/mL.

What about the “Curcumin in water solution” value ([6]; stock diluted 1:3 with water, 10.0% rubusoside) of the same compound?
The value was 1489 µg/mL.

What about the “Curcumin in water solution” value ([6]; stock diluted 1:7 with water, 5.0% rubusoside) of the same compound?
The value was 742 µg/mL.

What about the “Curcumin in water solution” value ([6]; stock diluted 1:15 with water, […] rubusoside) of the same compound?
Its value is 358 µg/mL.

What about the “Curcumin in water solution” value ([6]; stock diluted 1:39 with water, 1.0% rubusoside) of the same compound?
The value was 135 µg/mL.

And the “Reconstitution of dried powder” value [1]?
Its value is “successfully reconstituted”.

What about the “Curcumin content of reconstituted solution” value ([1]; powder from 30% rubusoside solution) of the same compound?
Its value is 1.87 % w/w.

And the “Curcumin content of reconstituted solution” value ([1]; powder from 40% rubusoside solution)?
The value was 2.03 % w/w.

For `CC(=O)CC(c1ccccc1)c1c(O)c2ccccc2oc1=O` (stereo not shown) [Warfarin, warfarin], which Papp A→B at 2 h, 10 μM (in vitro) is on record?
Its Papp A→B at 2 h, 10 μM is 33.5 ×10⁻⁶ cm/s.

Which inhibition at 2 h, 1 mg/mL (P-gp) does the source give for `C=C1C[C@@]23CC[C@H]4[C@@](C)(CCC[C@@]4(C)C(=O)O[C@@H]4O[C@H](CO)[C@@H](O)[C@H](O)[C@H]4O)[C@@H]2CC[C@]1(O[C@@H]1O[C@H](CO)[C@@H](O)[C@H](O)[C@H]1O)C3` [Rubusoside, b-D-glucosyl ester of 13-O-b-D-glucosyl-steviol] here?
The inhibition at 2 h, 1 mg/mL was 59%.

And the solubility ([7]; 25° C.)?
The solubility was about 400 mg/mL (≈ 622 mM).

And the solubility ([7]; 37° C.)?
Its solubility is about 800 mg/mL (≈ 1240 mM).

With `CNC(=C[N+](=O)[O-])NCCSCc1ccc(CN(C)C)o1` [Ranitidine] as the compound, how does the Papp A→B at 2 h, 10 μM (in vitro) read?
The Papp A→B at 2 h, 10 μM was 1.7 ×10⁻⁶ cm/s.
